Experiments:
[1] = system: basal synaptic transmission in hippocampal slices; assay: Basal synaptic transmission in acute hippocampal slices (field recordings); type: cell-based, mouse; settings: D2-selective inhibitors perfused in hippocampal slices; FIG. 11A
Procedure: (§1) Acute mouse hippocampal slice preparation: Hippocampal slices from 4 to 5 week old C57BL/6 mice were prepared in ice-cold artificial cerebrospinal fluid (ACSF) and cut on a 1000PLUS Vibratome (VIBRATOME, St. Louis, USA) to a thickness of ˜300 μm.
Electrophysiological recordings in mouse hippocampal slices: A single slice was transferred to a submerged recording chamber continuously perfused at a flow rate of 2 mL/min (30° C.) with recording ACSF (same as cutting ACSF minus the ascorbate, myo-inositol and pyruvate). Recordings were performed in 10 μM bicuculline (Tocris, USA) to block inhibitory activity. […] The AMPAR or NMDAR mediated EPSCs were measured 5 min prior to delivering the TBS, at approximately 20 min after inducing LTP (when the response stabilized), and at 10 and 40 min after commencing NRG-1β1 perfusion. In other experiments NMDAR EPSCs were recorded in potentiated slices prior to and after NRG-1 treatment at +40 mV (plus […] CNQX) to inhibit residual AMPAR currents. Paired-pulse facilitation was analyzed in whole-cell current-clamp recordings with inter-pulse intervals set to 50, 100, 150 and 200 msec.
Peptides corresponding to the splice variants of the EGF-like domains of NRG-1β1 and NRG-1α2 were dissolved in recording ACSF solution to a final concentration 0.1 or 1 nM. […] Data were analyzed for significance using the Student's t-test. […]

[2] = system: LTP at Schaffer collateral-CA1 synapses; assay: LTP and LTP depotentiation at Schaffer collateral-CA1 synapses in acute hippocampal slices; type: cell-based, mouse; settings: for block of the effects of NRG-1β on LTP by ErbB RTK inhibitors: inhibitor 10 μM applied 10 min prior to NRG-1, FIG. 3D
Procedure: as §1
Electrophysiological recordings in mouse hippocampal slices: A single slice was transferred to a submerged recording chamber continuously perfused at a flow rate of 2 mL/min (30° C.) with recording ACSF (same as cutting ACSF minus the ascorbate, myo-inositol and pyruvate). Recordings were performed in 10 μM bicuculline (Tocris, USA) to block inhibitory activity. […] A borosilicate two-barrel stimulation electrode (World Precision Instruments, Sarasota, Fla.) with a silver wire (A-M Systems, Carlsberg, Wash.) was filled with oxygenated ACSF recording solution and placed in the stratum radiatum to stimulate the Schaffer collateral/commissural fibers at 0.05 Hz (0.1 msec, 20-40 μA) via a stimulus isolator (A365, World Precision Instruments, Sarasota, Fla.). Data were collected with a Multiclamp 700A amplifier (Axon Instrument, Foster city, CA). The recordings were digitized at a sampling rate of 10 kHz and filtered at 3 kHz. Baseline fEPSP slopes were set to 40-50% of maximum response. Baseline recordings of at least 10 min were obtained once stable basal transmission was observed. LTP was induced using a theta burst stimulation (TBS) protocol that consisted of 5 trains delivered at 0.2 Hz. […] To measure the AMPAR or the NMDAR components of evoked EPSCs, voltage-clamp recordings from CA1 pyramidal neurons were performed at holding potentials of −70 mV to measure the AMPAR component (10 EPSCs during 1 min) or at +40 mV to measure the NMDAR component. The AMPAR or NMDAR mediated EPSCs were measured 5 min prior to delivering the TBS, at approximately 20 min after inducing LTP (when the response stabilized), and at 10 and 40 min after commencing NRG-1β1 perfusion. In other experiments NMDAR EPSCs were recorded in potentiated slices prior to and after NRG-1 treatment at +40 mV (plus […] CNQX) to inhibit residual AMPAR currents. Paired-pulse facilitation was analyzed in whole-cell current-clamp recordings with inter-pulse intervals set to 50, 100, 150 and 200 msec.
Peptides corresponding to the splice variants of the EGF-like domains of NRG-1β1 and NRG-1α2 were dissolved in recording ACSF solution to a final concentration 0.1 or 1 nM. NRG was delivered for 10 min in external recording ACSF solution 20, 30 or 50 min following TBS. The ErbB receptor inhibitors PD158780 (10 μM) and PD168393 (10 μM) were diluted in ACSF solution and applied to the slices 10 min prior to NRG-1 addition to ensure diffusion into the cell and efficient receptor inhibition. […] Data were analyzed for significance using the Student's t-test. […]

[3] = system: surface seGFP-GluR1 AMPA receptors; assay: Live imaging of surface seGFP-GluR1 in transfected dissociated hippocampal neurons; type: cell-based, rat; settings: PD158780 5 min before and during NRG-1; FIG. 6A
Procedure: Dissociated hippocampal cultures and chemLTP induction: Hippocampal neuronal cultures from E19 rat pups were prepared as reported previously. C. S. Herrmann et al., Clin Neurophysiol 116: 2719, 2005; A. Fisahn, et al., Nature 394: 186, 1998. Neurons were plated on 12 mm glass coverslips in 24 well plates at a density of 50,000 cells/well. ChemLTP was induced in cultures essential as described previously with minor modifications (Liao et al., 2001; Lu et al., 2001). Briefly, cells grown for 5 days in vitro (DIV5) were switched to medium containing 200 μM APV and maintained in Neurobasal media supplemented with B-27 (Invitrogen) until DIV18 to DIV22. […]
Live imaging in transfected hippocampal neurons of surface seGFP-tagged GluR1 AMPARs. […] Cells were perfused with […] glycine-containing medium used to induce chemLTP prior to capturing images and recorded for 4 min. […] Immediately after quenching with acidic MES buffer, cultures were switched back to 200 μM glycine in HBBSS (pH 7.4) for 2 min to recover the fluorescence. […] Images were detected with a cooled CCD camera (10 mW output, 12 bits, 1344×1024 pixels, Hamamatsu Orca ER) using 400 msec of exposure and 2×2 binning. Fluorescence was determined in 20-μm segments of neuronal processes that were at least 10 μm removed from the neuronal soma. […] Significance was evaluated by 1-way-ANOVA.

[4] = system: ErbB receptors; settings: cited from earlier work
[5] = target: ErbB receptors; settings: A431, SK-BR-3 and MDA-MB-453 cells; read-out: IC50 for block of ErbB phosphorylation; cited from earlier work
[6] = system: A431, SK-BR-3 and MDA-MB-453 cells; settings: cited from earlier work
[7] = system: PDGF receptor; settings: at μM concentrations; cited from earlier work
[8] = system: FGF receptor; settings: at μM concentrations; cited from earlier work

In the case of Clc1ccc(N2CCN(Cc3c[nH]c4ncccc34)CC2)cc1 [L745870], the “effect on basal synaptic transmission” value [1] is reported as “no effect” and the “effect on NRG-1-evoked LTP depotentiation” value ([2]; 50 nM, FIG. 11C) is reported as “prevent NRG-1-evoked LTP depotentiation”.

In the case of CNc1cc2c(Nc3cccc(Br)c3)ncnc2cn1 [PD158780, 4-[(3-Bromophenyl)amino]-6-(methylamino)-pyrido[3,4-d]pyridimine], the “block of the effects of NRG-1β on LTP by ErbB RTK inhibitors” value [2] is reported as “completely blocked”, the “effect on LTP depotentiation elicited by TPS” value ([2]; two-pathway approach, FIG. 4C,D) is reported as “block LTP depotentiation” and the “block of NRG-1-induced internalization of seGFP-GluR1” value [3] is reported as “completely blocked”. The “dissociation rate and autophosphorylation inhibition of the receptors” value [4] was “extremely slow (several hours)”, the Kd ([4]; reconstituted receptors in vitro, read-out: affinities (binds competitively with ATP in the pocket)) was 0.1 to 1 nM and the IC50 [5] was 15 to 50 nM. For the same compound, the “concentration that blocks proliferation” value [6] was 0.1 to 1 µM, the “cross-reactivity with PDGF receptor” value [7] was “no cross-reactivity” and the “cross-reactivity with FGF receptor” value [8] was “no cross-reactivity”.

For C=CC(=O)Nc1ccc2ncnc(Nc3cccc(Br)c3)c2c1 [PD168393, 4-[3(Bromophenyl)amino]-6-acrylamidoquinazoline], the “block of the effects of NRG-1β on LTP by ErbB RTK inhibitors” value [2] was “completely blocked”.

Reference: US20100316626A1, “METHODS FOR TREATMENT AND DIAGNOSIS OF PSYCHIATRIC DISORDERS” (THE GOVERNMENT OF THE UNITED STATES OF AMERICA AS …, priority 2006, published 2010)
